Assay results published in patent US20260325533A1, “CDK INHIBITOR COMPOUNDS” (ALEKSIA THERAPEUTICS, INC., priority 2023, published 2026).
Like-named read-outs stand apart in the source and are kept apart here.

Tests used:
[1] = biological target: CDK2/CCNE1 (Homo sapiens, UniProt P24941); assay: CDK2 homogeneous time-resolved fluorescence (HTRF) kinase assay; type: biochemical
Summary of the method: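 TR-FRET read-out (665 nm, or 665/615 ratio) of Eu-antibody detection of phospho-4E-BP1 (Thr37/46) ULight peptide. Enzyme 3 nM, ATP 1 mM, peptide 50 nM, 1% DMSO; 60 min reaction at 23 °C after 20 min compound preincubation. IC50 from 11-point half-log titrations, top typically 10 μM.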

[2] = biological target: CDK1/CCNB1 (Homo sapiens, UniProt P06493); assay: CDK1 homogeneous time-resolved fluorescence (HTRF) kinase assay; type: biochemical
Chain of CDK1/CCNB1 (P06493 whole entry): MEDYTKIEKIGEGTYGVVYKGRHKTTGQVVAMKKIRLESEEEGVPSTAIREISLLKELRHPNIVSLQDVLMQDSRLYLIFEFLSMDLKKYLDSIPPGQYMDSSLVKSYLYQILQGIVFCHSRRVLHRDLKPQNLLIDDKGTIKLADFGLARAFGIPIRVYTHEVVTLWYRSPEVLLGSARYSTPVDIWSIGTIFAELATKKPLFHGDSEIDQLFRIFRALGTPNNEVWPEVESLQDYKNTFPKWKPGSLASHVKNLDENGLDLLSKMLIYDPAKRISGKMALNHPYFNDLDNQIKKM
Chain of CDK1/CCNB1 (P14635 whole entry partner): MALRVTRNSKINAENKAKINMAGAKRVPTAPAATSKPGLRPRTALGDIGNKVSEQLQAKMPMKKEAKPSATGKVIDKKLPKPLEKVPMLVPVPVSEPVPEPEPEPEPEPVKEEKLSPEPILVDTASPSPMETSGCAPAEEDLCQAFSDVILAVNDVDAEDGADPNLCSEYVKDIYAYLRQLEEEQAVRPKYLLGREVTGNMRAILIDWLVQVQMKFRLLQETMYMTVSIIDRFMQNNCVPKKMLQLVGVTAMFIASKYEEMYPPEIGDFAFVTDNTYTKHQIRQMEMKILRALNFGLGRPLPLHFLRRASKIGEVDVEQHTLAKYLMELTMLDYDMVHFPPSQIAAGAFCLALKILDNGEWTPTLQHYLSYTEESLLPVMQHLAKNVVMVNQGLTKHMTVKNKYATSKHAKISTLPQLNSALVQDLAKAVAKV
Summary of the method: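 Kinase activity is measured as Lance signal (665 nm, or 665/615 nm ratio) from europium-labelled anti-phospho-Thr37/46 antibody binding ULight-4E-BP1 peptide. Reactions contain 0.5 nM enzyme, 1 mM ATP, 1% DMSO and run 60 min at 23 °C before EDTA quench.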

[3] = CDK2/CCNE, 25-250 nM marked x, read-out: CDK2/CCNE IC50 25-250 nM
[4] = CDK1/CCNB, >250 nM marked x, read-out: CDK1/CCNB IC50 >250 nM
[5] = CDK2/CCNE, >250 nM marked x, read-out: CDK2/CCNE IC50 >250 nM
[6] = CDK1/CCNB, 25-250 nM marked x, read-out: CDK1/CCNB IC50 25-250 nM
[7] = 0.5 nM CDK1/CCNB1, 1 mM ATP, read-out: CDK1/CCNB IC50 >250 nM

IC50 [1, 3] [µM] | IC50 [2, 4] [µM] | Compound | also measured
0.025 to 0.25 | > 0.25 | Cc1c(-c2nccc3cnc(Nc4ccc(S(C)(=O)=O)cc4)cc23)ccc2nn(CC3CCNC3)cc12 (racemic) [Ex 195, 5-(4-methyl-2-(pyrrolidin-3-ylmethyl)-2H-indazol-5-yl)-N-(4-(methylsulfonyl)phenyl)-2,6-naphthyridin-3-amine] | –
0.025 to 0.25 | > 0.25 | CCNC(=O)[C@H]1CC[C@H](c2nccc3cnc(Nc4ccc(S(C)(=O)=O)cc4)cc32)CC1 [Ex 179, (1r,4r)-N-ethyl-4-(7-((4-(methylsulfonyl)phenyl)amino)-2,6-naphthyridin-1-yl)cyclohexane-1-carboxamide] | –
0.025 to 0.25 | > 0.25 | C=CS(=O)(=O)c1ccc(Nc2cc3c(-c4ccc(O)cc4)nccc3cn2)cc1 [Ex 157, 4-(7-((4-(vinylsulfonyl)phenyl)amino)-2,6-naphthyridin-1-yl)phenol] | –
– | > 0.25 | CS(=O)(=O)c1ccc(Nc2cc3c(C4CCN(CC5CCCCC5)CC4)nccc3cn2)cc1 [Ex 153, 5-(1-(cyclohexylmethyl)piperidin-4-yl)-N-(4-(methylsulfonyl)phenyl)-2,6-naphthyridin-3-amine] | IC50 [1, 5]: > 0.25 µM
0.025 to 0.25 | > 0.25 | CCCNC(=O)[C@H]1CC[C@H](c2nccc3cnc(Nc4ccc(S(C)(=O)=O)cc4)cc32)CC1 [Ex 180, (1r,4r)-4-(7-((4-(methylsulfonyl)phenyl)amino)-2,6-naphthyridin-1-yl)-N-propylcyclohexane-1-carboxamide] | –
– | > 0.25 | CC(C)S(=O)(=O)N1CCC(c2nccc3cnc(Nc4ccc(S(C)(=O)=O)cc4)cc23)CC1 [Ex 176, 5-(1-(isopropylsulfonyl)piperidin-4-yl)-N-(4-(methylsulfonyl)phenyl)-2,6-naphthyridin-3-amine] | IC50 [1, 5]: > 0.25 µM
0.025 to 0.25 | > 0.25 | CNC(=O)[C@H]1CC[C@H](c2nccc3cnc(Nc4ccc(S(C)(=O)=O)cc4)cc32)CC1 [Ex 178, (1r,4r)-N-methyl-4-(7-((4-(methylsulfonyl)phenyl)amino)-2,6-naphthyridin-1-yl)cyclohexane-1-carboxamide] | –
– | > 0.25 | CC(C)N1CCC(c2nccc3cnc(Nc4ccc(S(C)(=O)=O)cc4)cc23)CC1 [Ex 170, 5-(1-isopropylpiperidin-4-yl)-N-(4-(methylsulfonyl)phenyl)-2,6-naphthyridin-3-amine] | IC50 [1, 5]: > 0.25 µM
0.025 to 0.25 | > 0.25 | Cc1c(-c2nccc3cnc(Nc4ccc(S(C)(=O)=O)cc4)cc23)ccc2nn(CCC3CNC3)cc12 [Ex 208, 5-(2-(2-(azetidin-3-yl)ethyl)-4-methyl-2H-indazol-5-yl)-N-(4-(methylsulfonyl)phenyl)-2,6-naphthyridin-3-amine] | –
0.025 to 0.25 | > 0.25 | C=CS(=O)(=O)c1ccc(Nc2cc3c(N4CC(C#N)C4)nccc3cn2)cc1 [Ex 188, 1-(7-((4-(vinylsulfonyl)phenyl)amino)-2,6-naphthyridin-1-yl)azetidine-3-carbonitrile] | –
0.025 to 0.25 | > 0.25 | Cc1c(-c2nccc3cnc(Nc4ccc(S(C)(=O)=O)cc4)cc23)ccc2c1cnn2CCC#N [Ex 194, 3-(4-methyl-5-(7-((4-(methylsulfonyl)phenyl)amino)-2,6-naphthyridin-1-yl)-1H-indazol-1-yl)propanenitrile] | –
– | – | CS(=O)(=O)c1ccc(Nc2cc3c(C4CCC(C#N)CC4)nccc3cn2)cc1 (racemic) [Ex 142, 4-(7-((4-(methylsulfonyl)phenyl)amino)-2,6-naphthyridin-1-yl)cyclohexane-1-carbonitrile] | IC50 ([1]; CDK2/CCNE, <25 nM, read-out: CDK2/CCNE IC50 <25 nM): < 0.025 µM; IC50 [2, 6]: 0.025 to 0.25 µM
0.025 to 0.25 | > 0.25 | CS(=O)(=O)c1ccc(Nc2cc3c(N4CCC(C#N)CC4)nccc3cn2)cc1 [Ex 259, 1-(7-((4-(methylsulfonyl)phenyl)amino)-2,6-naphthyridin-1-yl)piperidine-4-carbonitrile] | –
– | > 0.25 | CS(=O)(=O)c1ccc(Nc2cc3c(C4CCN(S(C)(=O)=O)CC4)nccc3cn2)cc1 [Ex 175, N-(4-(methylsulfonyl)phenyl)-5-(1-(methylsulfonyl)piperidin-4-yl)-2,6-naphthyridin-3-amine] | IC50 [1, 5]: > 0.25 µM
– | > 0.25 | CS(=O)(=O)N1CCC(Nc2cc3c(N4CCCCC4)nc(CCl)cc3cn2)CC1 [Ex 119, 7-(chloromethyl)-N-(1-(methylsulfonyl)piperidin-4-yl)-5-(piperidin-1-yl)-2,6-naphthyridin-3-amine] | IC50 [1, 5]: > 0.25 µM
0.025 to 0.25 | > 0.25 | Cn1cc(-c2nccc3cnc(NC4CCN(S(C)(=O)=O)CC4)cc23)cn1 [Example 4, 5-(1-methyl-1H-pyrazol-4-yl)-N-(1-(methylsulfonyl)piperidin-4-yl)-2,6-naphthyridin-3-amine] | –

IC50 [1, 3] [µM] | IC50 [2, 4] [µM] | Compound | also measured
0.025 to 0.25 | > 0.25 | CS(=O)(=O)N1CCC(Nc2cc3c(N4CCCC4CO)nccc3cn2)CC1 (racemic) [Ex 57, (1-(7-((1-(methylsulfonyl)piperidin-4-yl)amino)-2,6-naphthyridin-1-yl)pyrrolidin-2-yl)methanol] | –
0.025 to 0.25 | > 0.25 | CS(=O)(=O)N1CCC(Nc2cc3c(/C(C#N)=C/O)nccc3cn2)CC1 [Ex 80, (Z)-3-hydroxy-2-(7-((1-(methylsulfonyl)piperidin-4-yl)amino)-2,6-naphthyridin-1-yl)acrylonitrile] | –
0.025 to 0.25 | > 0.25 | CS(=O)(=O)c1ccc(Nc2cc3c(-c4ccc5[nH]cnc5c4)nccc3cn2)cc1 [Ex 126, 5-(1H-benzo[d]imidazol-5-yl)-N-(4-(methylsulfonyl)phenyl)-2,6-naphthyridin-3-amine] | –
0.025 to 0.25 | > 0.25 | C=CS(=O)(=O)c1ccc(Nc2cc3c(N4CCCC(C#N)C4)nccc3cn2)cc1 (racemic) [Ex 123, 1-(7-((4-(vinylsulfonyl)phenyl)amino)-2,6-naphthyridin-1-yl)piperidine-3-carbonitrile] | –
– | – | CS(=O)(=O)c1ccc(Nc2ncc3cccc(C4=CCCCC4)c3n2)cc1 [Example 952, 8-(cyclohex-1-en-1-yl)-N-(4-(methylsulfonyl)phenyl)quinazolin-2-amine] | IC50 ([1]; 3 nM CDK2/CCNE1, 1 mM ATP, read-out: CDK2/CCNE IC50 25-250 nM): 0.025 to 0.25 µM; IC50 [2, 7]: > 0.25 µM
– | > 0.25 | CS(=O)(=O)c1ccc(Nc2cc3c(C4CCN(Cc5ccccc5)CC4)nccc3cn2)cc1 [Ex 172, 5-(1-benzylpiperidin-4-yl)-N-(4-(methylsulfonyl)phenyl)-2,6-naphthyridin-3-amine] | IC50 [1, 5]: > 0.25 µM
– | – | CS(=O)(=O)c1ccc(Nc2cc3c(N4CCC(C#N)CC4)ncnc3cn2)cc1 [Example 960, 1-(6-((4-(methylsulfonyl)phenyl)amino)pyrido [3,4-d]pyrimidin-4-yl)piperidine-4-carbonitrile] | IC50 ([1]; 3 nM CDK2/CCNE1, 1 mM ATP, read-out: CDK2/CCNE IC50 >250 nM): > 0.25 µM; IC50 [2, 7]: > 0.25 µM
0.025 to 0.25 | > 0.25 | CC1(C#N)CCN(c2nccc3cnc(NC4CCN(S(C)(=O)=O)CC4)cc23)CC1 [Ex 212, 4-methyl-1-(7-((1-(methylsulfonyl)piperidin-4-yl)amino)-2,6-naphthyridin-1-yl)piperidine-4-carbonitrile] | –
0.025 to 0.25 | > 0.25 | CC1(O)CCN(c2nccc3cnc(NC4CCN(S(C)(=O)=O)CC4)cc23)CC1 [Ex 54, 4-methyl-1-(7-((1-(methylsulfonyl)piperidin-4-yl)amino)-2,6-naphthyridin-1-yl)piperidin-4-ol] | –
0.025 to 0.25 | > 0.25 | N#CC1CCN(c2nccc3cnc(Nc4ccc(CO)cc4)cc23)CC1 [Ex 132, 1-(7-((4-(hydroxymethyl)phenyl)amino)-2,6-naphthyridin-1-yl)piperidine-4-carbonitrile] | –
0.025 to 0.25 | > 0.25 | CS(=O)(=O)N1CCC(Nc2cc3c(C(=O)N4CCC(C#N)C4)nccc3cn2)CC1 (racemic) [Ex 94, 1-(7-((1-(methylsulfonyl)piperidin-4-yl)amino)-2,6-naphthyridine-1-carbonyl)pyrrolidine-3-carbonitrile] | –
0.025 to 0.25 | – | N#CC1CCN(c2nccc3cnc(Nc4ccc(O)c(CO)c4)cc23)CC1 [Ex 210, 1-(7-((4-hydroxy-3-(hydroxymethyl)phenyl)amino)-2,6-naphthyridin-1-yl)piperidine-4-carbonitrile] | IC50 [2, 6]: 0.025 to 0.25 µM
0.025 to 0.25 | > 0.25 | CS(=O)(=O)N1CCC(Nc2cc3c(N4CCCCC4)nc(C(F)F)cc3cn2)CC1 [Ex 118, 7-(difluoromethyl)-N-(1-(methylsulfonyl)piperidin-4-yl)-5-(piperidin-1-yl)-2,6-naphthyridin-3-amine] | –
0.025 to 0.25 | > 0.25 | CN1CCC(c2nccc3cnc(Nc4ccc(S(C)(=O)=O)cc4)cc23)CC1 [Ex 151, 5-(1-methylpiperidin-4-yl)-N-(4-(methylsulfonyl)phenyl)-2,6-naphthyridin-3-amine] | –
0.025 to 0.25 | > 0.25 | CS(=O)(=O)N1CCC(Nc2cc3c(N4CCCCC4CO)nccc3cn2)CC1 (racemic) [Ex 56, (1-(7-((1-(methylsulfonyl)piperidin-4-yl)amino)-2,6-naphthyridin-1-yl)piperidin-2-yl)methanol] | –
